Consider 1 molecule from patent US20250236616A1, “IMMUNOMODULATING AZALIDES” (Zoetis Services LLC, priority 2021, published 2025).

Data set [1] has as its system BRD pathogens, M. haemolytica and P. multocida. Kind of data set: MIC screening panel, BRD pathogens (CLSI broth micro-dilution). The format is cell-based. The note with it: BRD pathogenic strains / target pathogens; read-out: MIC. Summed up: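 MICs were determined by CLSI broth micro-dilution in cation-adjusted Mueller Hinton Broth at about 5×10^5 CFU/mL, with QC strains included. Incubation was 18-22 h at 35-37° C. in air, 5% CO2 or anaerobically (up to 48 h) depending on strain. BRD pathogens were first tested at a top concentration of 64 μg/mL in an eleven-point dilution series.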

The test system of another data set is CD163. Kind of data set: CD163 expression by flow cytometry, cattle. It counts as in vivo, bovine. The note with it: monocytes/macrophages of whole blood. The method, then:
CD163 Expression by Flow Cytometry-Fresh whole bovine blood samples were collected into EDTA vacutainer tubes, placed on ice and processed within two hours of collection. Blood was placed in 96 well round bottom plates at 30 μL per well, 5 μL of goat serum was added as a blocking reagent and the plate was rocked at 4° C. for approximately 15 minutes. To label cells, 10 μL of a master mix panel of antibodies including anti-CD14 (BioLegend #301854), anti-CD172a (BioRad #MCA2041C), anti-CD163 (Kingfisher #WSC0832B-100) and anti-CD16 (BioRad #MCA5665F), was added to the samples and returned to 4° C. (protected from light) for 30 minutes. Single stain controls were included for use in fluorescence compensation matrices. Red blood cells were removed by adding 200 μL of lysis buffer and incubating for 10 minutes at room temperature while rocking. The plate was then centrifuged at 270×g for three minutes and supernatant removed. This step was repeated until supernatant was clear. 200 μL of FACS buffer was added to each well to wash cells, centrifuged as above, resuspended in 80 μL of FACS buffer and read immediately on a digital FACS Canto II HTS (BD Bioscience) flow cytometer. Data was analyzed using FlowJo software (BD Bioscience). Macrophage subpopulations were determined using CD172, CD14, CD16 markers and assessed for expression of CD163. […]
A general note: A flow cytometer gives signals particle by particle.

The nature of data set [2]: PK study, plasma concentration. The format is in vivo. The conditions noted are these: 10 mg/kg dose.
Experimental: The primary clinical endpoint for efficacy was treatment failure/success over a 14-day observation period. Clinically normal beef calves (150-200 kg) at moderate risk for BRD were dosed on arrival to the feedlot. Animals (N=114/group) received saline (T01), 5 mg/kg M9 (T02) or 10 mg/kg M9 (T03); or Zactran (T04).
For data set [3], the system named is M. haemolytica (strain: OSU-012103-BHI). The data set is described as follows: Bovine M. haemolytica intratracheal lung challenge model, mortality. It counts as in vivo. The conditions noted are these: 6 animals. The procedure: To evaluate immunomodulation effects and potential biomarkers, a bovine M. haemolytica (strain: OSU-012103-BHI) intratracheal lung challenge model study was completed utilizing M9 treatment in the presence and absence of bacterial challenge and a Draxxin® comparator. […] Animals were administered 0.05 mL/kg saline (T01), 10 mg/kg M9 (T02); Draxxin 2.5 mg/kg (T03) and 10 mg/kg M9 (T04) by subcutaneous injection on Day-1. Dose was based on body weight. Animals were challenge on Day 0 with the exception of T04. Blood was collected longitudinally throughout the study for biomarker evaluation panel (e.g., IL-6 and CD163) including two baseline samples prior to treatment. FIG. 4A depicts the area under the curve concentrations for IL-6 protein for individual animals against percent lung lesion scores and FIG. 4B depicts the CD163 fold change area under the curve for individual animals against percent lung lesion scores. Data is represented as percent lung lesion scores against the area under the curve (AUC) for IL-6 protein (immunoassay expressed in pg/mL) and CD163 (flow cytometric mean fluorescent intensity (MFI) in fold change from baseline). In both assays, a 2-fold change is typically considered to be relevant.

A further data set has as its system P. multocida. Kind of data set: Murine P. multocida intranasal challenge study, treatment 18 hours after challenge, survival. The format is in vivo, mice. The conditions noted are these: subcutaneous 18 hours after challenge (5×10^3 CFU/mouse); tulathromycin 16 mg/kg, M9 32 mg/kg, ceftiofur 9 mg/kg. The method, then: In one murine P. multocida intranasal challenge study, mice were administered tulathromycin (16 mg/kg; T02), M9 (32 mg/kg; T03), or ceftiofur (9 mg/kg; T04) by subcutaneous injection 18 hours after bacterial challenge (5×10^3 CFU/mouse) for lung tissue RNA sequence analysis. Survival at Day 7 was about 80%, 50%, and 90% for T02, T03, and T04, respectively, compared to placebo at 0%. Differential gene expression from total lung tissue RNA sequence analysis indicated at least 226 unique genes were up or down regulated (with significance) for T03. Output from ingenuity pathway analysis of these unique genes predicted major upstream regulators of the involved pathways. Data was analyzed based on the number of genes being modulated in the same direction that were associated with a given upstream regulator. An activation z-score of 2 or greater is considered significant and the direction change is indicated by + (activated) or -(inhibited). The top 5 pathways included: IL-9 signaling, glucocorticoid receptor signaling, prolactin signaling, JAK STAT signaling, and IL-17 signaling. The top 6 upstream regulators (activation z-score) included: lipopolysaccharide (−6.725), TNF (−4.669), IFNγ (−5.759), IL-1β (−5.947), STAT1 (−2.787), and poly rl: rC-RNA (−5.289). Even though this study was run in the murine model, the top upstream regulators identified as being modulated by M9 include an almost ubiquitous overlap with the pathways identified in the natural disease study as being key mediators in BRD, and therefore is modulating highly relevant pathways in BRD pathobiology.

SMILES strings stand for the structures. “Also recorded” adds a separate entry of the source.

For the molecule `CCCNC[C@]1(O)[C@H](C)O[C@@H](O[C@H]2[C@H](C)[C@@H](O[C@@H]3O[C@H](C)C[C@H](NC)[C@H]3O)[C@](C)(O)C[C@@H](C)CN[C@H](C)[C@@H](O)[C@](C)(O)[C@@H](CC)OC(=O)[C@@H]2C)C[C@@]1(C)OC` [Example M9, (2R,3S,4R,5R,8R,10R,11R,12S,13S,14R)-2-ethyl-3,4, 10-trihydroxy-13-(((2R,4R,5S,6S)-5-hydroxy-4-methoxy-4,6-dimethyl-5-((propylamino)methyl)-tetrahydro-2H-pyran-2-yl)oxy)-11-(((2S,3R,4S,6R)-3-hydroxy-6-methyl-4-(methylamino)tetrahydro-2H-pyran-2-yl)oxy)-3,5,8,10,12,14-hexamethyl-1-oxa-6-azacyclopentadecan-15-one], the MIC (as a rule, the lowest concentration that inhibits growth of the organism) in data set [1] is at most 64 µg/mL. Also, in the data set on CD163, the CD163 expression result is recorded as “suppressed; also recorded: mitigates the pathologic increase in CD163 expression”. This molecule gave a maximum plasma concentration in data set [2] of 5 µg/mL. Further, the Mortality is listed as 1/6 in data set [3] (M. haemolytica challenge Day 0, subcutaneous Day -1, M9 10 mg/kg, Draxxin 2.5 mg/kg) and 0/6 in data set [3] (No challenge, M9 10 mg/kg subcutaneous Day -1). Moreover, the “Survival at Day 7” value in the data set on P. multocida is recorded as about 50%.
